Assay results taken from the supplement of paper PMC11061612.

Columns and labels:
SN-38 = compound: CCc1c2c(nc3ccc(O)cc13)-c1cc3c(c(=O)n1C2)COC(=O)[C@]3(O)CC [SN-38]; conditions: max 0.3 µM
Summary of the method: (§1)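 Following 24 hours at 37°C and 5% CO2, cancer cell lines in 1536-well plates with 7.5 μl DMEM/F12 or RPMI and 10% FBS were dosed for 72 hours, final DMSO typically being 0.2%. CellTiter-Glo 2.0 luminescence, scaled between blank-well and DMSO-well means, gave the viability readout. Dose responses were fitted to a two-parameter logistic curve with a non-linear mixed effects model, and the single-agent IC50 was derived from this fit.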

Savolitinib = compound: C[C@@H](c1ccc2nccn2c1)n1nnc2ncc(-c3cnn(C)c3)nc21 [Savolitinib]; conditions: max 1 µM
Summary of the method: as §1

AZD1390 = compound: CC(C)n1c(=O)n(C)c2cnc3cc(F)c(-c4ccc(OCCCN5CCCCC5)nc4)cc3c21 [AZD1390]; conditions: max 0.3 µM
Summary of the method: as §1

AZD5363 = compound: C1CN(CCC1(C(=O)N[C@@H](CCO)C2=CC=C(C=C2)Cl)N)C3=NC=NC4=C3C=CN4 [AZD5363]; conditions: max 10 µM
Summary of the method: as §1

5-Fluorouracil = compound: O=c1[nH]cc(F)c(=O)[nH]1 [5-Fluorouracil]; conditions: max 20 µM
Summary of the method: as §1

AZD8186 = compound: C[C@@H](Nc1cc(F)cc(F)c1)c1cc(C(=O)N(C)C)cc2c(=O)cc(N3CCOCC3)oc12 [AZD8186]; conditions: max 10 µM
Summary of the method: as §1

Olaparib = compound: O=C(c1cc(Cc2n[nH]c(=O)c3ccccc23)ccc1F)N1CCN(C(=O)C2CC2)CC1 [Olaparib]; conditions: max 10 µM
Summary of the method: as §1

Paclitaxel = compound: CC(=O)O[C@H]1C(=O)[C@@]2(C)[C@H]([C@H](OC(=O)c3ccccc3)[C@]3(O)C[C@H](OC(=O)[C@H](O)[C@@H](NC(=O)c4ccccc4)c4ccccc4)C(C)=C1C3(C)C)[C@]1(OC(C)=O)CO[C@@H]1C[C@@H]2O [Paclitaxel]; conditions: max 3 µM
Summary of the method: as §1

AZD5153 = compound: COc1nnc2ccc(N3CCC(c4ccc(OCCN5CCN(C)C(=O)[C@H]5C)cc4)CC3)nn12 [AZD5153]; conditions: max 1 µM
Summary of the method: as §1

Lapatinib = compound: CS(=O)(=O)CCNCc1ccc(-c2ccc3ncnc(Nc4ccc(OCc5cccc(F)c5)c(Cl)c4)c3c2)o1 [Lapatinib]; conditions: max 10 µM
Summary of the method: as §1

Taselisib = compound: Cc1nc(-c2cn3c(n2)-c2ccc(-c4cnn(C(C)(C)C(N)=O)c4)cc2OCC3)n(C(C)C)n1 [Taselisib]; conditions: max 10 µM
Summary of the method: as §1

Crizotinib = compound: C[C@@H](Oc1cc(-c2cnn(C3CCNCC3)c2)cnc1N)c1c(Cl)ccc(F)c1Cl [Crizotinib]; conditions: max 10 µM
Summary of the method: as §1

Trametinib = compound: CC(=O)Nc1cccc(-n2c(=O)n(C3CC3)c(=O)c3c(Nc4ccc(I)cc4F)n(C)c(=O)c(C)c32)c1 [Trametinib]; conditions: max 1 µM
Summary of the method: as §1

Alisertib = compound: COc1cc(Nc2ncc3c(n2)-c2ccc(Cl)cc2C(c2c(F)cccc2OC)=NC3)ccc1C(=O)O [Alisertib]; conditions: max 10 µM
Summary of the method: as §1

Gefitinib = compound: COc1cc2ncnc(Nc3ccc(F)c(Cl)c3)c2cc1OCCCN1CCOCC1 [Gefitinib]; conditions: max 10 µM
Summary of the method: as §1

AZD4320 = compound: CN(CC[C@H](CSC1=CC=CC=C1)NC2=C(C=C(C=C2)S(=O)(=O)NC(=O)C3=CC=C(C=C3)N4CCC(CC4)[C@H](C5=CC=CC=C5C6=CC=C(C=C6)Cl)O)S(=O)(=O)C(F)(F)F)CCO [AZD4320]; conditions: max 1 µM
Summary of the method: as §1

AZD0156 = compound: CN(C)CCCOc1ccc(-c2ccc3ncc4c(c3c2)n(C2CCOCC2)c(=O)n4C)cn1 [AZD0156]; conditions: max 3 µM
Summary of the method: as §1

Etoposide = compound: COc1cc([C@@H]2c3cc4c(cc3[C@@H](O[C@@H]3O[C@@H]5CO[C@@H](C)O[C@H]5[C@H](O)[C@H]3O)[C@H]3COC(=O)[C@H]23)OCO4)cc(OC)c1O [Etoposide]; conditions: max 10 µM
Summary of the method: as §1

AZD7648 = compound: Cc1cc2ncnn2cc1Nc1ncc2c(n1)n(C1CCOCC1)c(=O)n2C [AZD7648]; conditions: max 10 µM
Summary of the method: as §1

AZD5991 = compound: Cc1c2c(nn1C)CSCc1cc(n(C)n1)CSc1cc(c3ccccc3c1)OCCCc1c(C(=O)O)n(C)c3c-2c(Cl)ccc13 [AZD5991]; conditions: max 1 µM
Summary of the method: as §1

AZD2811 = compound: CCN(CCO)CCCOc1ccc2c(Nc3cc(CC(=O)Nc4cccc(F)c4)[nH]n3)ncnc2c1 [AZD2811]; conditions: max 1 µM
Summary of the method: as §1

Carboplatin = compound: C1CC(C1)(C(=O)[O-])C(=O)[O-].N.N.[Pt+2] [Carboplatin]; conditions: max 10 µM
Summary of the method: as §1

Prexasertib = compound: COc1cccc(OCCCN)c1-c1cc(Nc2cnc(C#N)cn2)n[nH]1 [Prexasertib]; conditions: max 1 µM
Summary of the method: as §1

AZD6738 = compound: C[C@@H]1COCCN1C2=NC(=NC(=C2)C3(CC3)[S@](=N)(=O)C)C4=C5C=CNC5=NC=C4 [AZD6738]; conditions: max 10 µM
Summary of the method: as §1

[1] = compound: O=C(Nc1ccc2[nH]nc(-c3ccncc3)c2c1)[C@@H]1CCN(CC(=O)N2CCN(c3ccc(-c4ncccn4)cc3)CC2)C1; conditions: max 5 µM
Summary of the method: as §1

Venetoclax = compound: CC1(C)CCC(CN2CCN(c3ccc(C(=O)NS(=O)(=O)c4ccc(NCC5CCOCC5)c([N+](=O)[O-])c4)c(Oc4cnc5[nH]ccc5c4)c3)CC2)=C(c2ccc(Cl)cc2)C1 [Venetoclax]; conditions: max 1 µM
Summary of the method: as §1

Dasatinib = compound: CC1=C(C(=CC=C1)Cl)NC(=O)C2=CN=C(S2)NC3=CC(=NC(=N3)C)N4CCN(CC4)CCO [Dasatinib]; conditions: max 2 µM
Summary of the method: as §1

MK-2206 = compound: NC1(c2ccc(-c3nc4ccn5c(=O)[nH]nc5c4cc3-c3ccccc3)cc2)CCC1 [MK-2206]; conditions: max 10 µM
Summary of the method: as §1

Palbociclib = compound: CC(=O)c1c(C)c2cnc(Nc3ccc(N4CCNCC4)cn3)nc2n(C2CCCC2)c1=O [Palbociclib]; conditions: max 10 µM
Summary of the method: as §1

SG3199 = compound: CC1=CN2[C@@H](C1)C=NC3=CC(=C(C=C3C2=O)OC)OCCCCCOC4=C(C=C5C(=C4)N=C[C@@H]6CC(=CN6C5=O)C)OC [SG3199]; conditions: max 0.001 µM
Summary of the method: as §1

Doxorubicin = compound: COc1cccc2c1C(=O)c1c(O)c3c(c(O)c1C2=O)C[C@@](O)(C(=O)CO)C[C@@H]3O[C@H]1C[C@H](N)[C@H](O)[C@H](C)O1 [Doxorubicin]; conditions: max 1 µM
Summary of the method: as §1

Gemcitabine = compound: Nc1ccn([C@@H]2O[C@H](CO)[C@@H](O)C2(F)F)c(=O)n1 [Gemcitabine]; conditions: max 0.3 µM
Summary of the method: as §1

SRA737 = compound: N#Cc1cnc(Nc2cc(NC[C@H]3CNCCO3)c(C(F)(F)F)cn2)cn1 [SRA737]; conditions: max 10 µM
Summary of the method: as §1

Selumetinib = compound: Cn1cnc2c(F)c(Nc3ccc(Br)cc3Cl)c(C(=O)NOCCO)cc21 [Selumetinib]; conditions: max 10 µM
Summary of the method: as §1

AZD1775 = compound: C=CCn1c(=O)c2cnc(Nc3ccc(N4CCN(C)CC4)cc3)nc2n1-c1cccc(C(C)(C)O)n1 [AZD1775]; conditions: max 3 µM
Summary of the method: as §1

Row | Cell Line | IC50, cell viability 72 h (SN-38) [µM] | IC50, cell viability 72 h (Savolitinib) [µM] | IC50, cell viability 72 h (AZD1390) [µM] | IC50, cell viability 72 h (AZD5363) [µM] | IC50, cell viability 72 h (5-Fluorouracil) [µM] | IC50, cell viability 72 h (AZD8186) [µM] | IC50, cell viability 72 h (Olaparib) [µM] | IC50, cell viability 72 h (Paclitaxel) [µM] | IC50, cell viability 72 h (AZD5153) [µM] | IC50, cell viability 72 h (Lapatinib) [µM] | IC50, cell viability 72 h (Taselisib) [µM] | IC50, cell viability 72 h (Crizotinib) [µM] | IC50, cell viability 72 h (Trametinib) [µM] | IC50, cell viability 72 h (Alisertib) [µM] | IC50, cell viability 72 h (Gefitinib) [µM] | IC50, cell viability 72 h (AZD4320) [µM] | IC50, cell viability 72 h (AZD0156) [µM] | IC50, cell viability 72 h (Etoposide) [µM] | IC50, cell viability 72 h (AZD7648) [µM] | IC50, cell viability 72 h (AZD5991) [µM] | IC50, cell viability 72 h (AZD2811) [µM] | IC50, cell viability 72 h (Carboplatin) [µM] | IC50, cell viability 72 h (Prexasertib) [µM] | IC50, cell viability 72 h (AZD6738) [µM] | IC50, cell viability 72 h [1] [µM] | IC50, cell viability 72 h (Venetoclax) [µM] | IC50, cell viability 72 h (Dasatinib) [µM] | IC50, cell viability 72 h (MK-2206) [µM] | IC50, cell viability 72 h (Palbociclib) [µM] | IC50, cell viability 72 h (SG3199) [µM] | IC50, cell viability 72 h (Doxorubicin) [µM] | IC50, cell viability 72 h (Gemcitabine) [µM] | IC50, cell viability 72 h (SRA737) [µM] | IC50, cell viability 72 h (Selumetinib) [µM] | IC50, cell viability 72 h (AZD1775) [µM]
1 | ME-180 (Cervical Carcinoma) | 0.0158 | > 1 | > 0.3 | 2.13 | > 20 | > 10 | > 10 | 0.141 | > 1 | > 10 | 0.734 | > 10 | > 1 | 9.54 | > 10 | > 1 | > 3 | 3.73 | > 10 | > 1 | > 1 | > 10 | > 1 | > 10 | > 5 | > 1 | 1.24 | > 10 | > 10 | > 0.001 | > 1 | 0.13 | > 10 | > 10 | 1.45
2 | A4-Fuk (B-Lymphoblastic Leukemia) | 0.0174 | > 1 | > 0.3 | 2.06 | 3.92 | 5.86 | > 10 | 0.00317 | 0.0294 | 7.57 | 0.234 | 2.21 | 0.282 | 0.207 | > 10 | > 1 | 2.42 | 0.321 | 5.15 | 0.0776 | > 1 | > 10 | 0.00745 | 2.21 | 0.771 | 0.966 | > 2 | 2.77 | 4.24 | > 0.001 | 0.237 | 0.00682 | 0.844 | > 10 | 0.11
3 | NCI-H522 (Lung Adenocarcinoma) | > 0.3 | > 1 | > 0.3 | > 10 | > 20 | > 10 | > 10 | 0.0595 | > 1 | > 10 | > 10 | > 10 | > 1 | > 10 | > 10 | > 1 | > 3 | > 10 | > 10 | > 1 | > 1 | > 10 | > 1 | > 10 | > 5 | > 1 | > 2 | > 10 | > 10 | > 0.001 | > 1 | > 0.3 | > 10 | > 10 | > 3
4 | HAL-01 (B-Lymphoblastic Leukemia) | 0.00569 | > 1 | > 0.3 | > 10 | > 20 | 1.13 | > 10 | 0.335 | 0.0918 | > 10 | 0.36 | 2.84 | > 1 | 0.109 | > 10 | 0.496 | > 3 | 2.7 | > 10 | > 1 | > 1 | > 10 | 0.0166 | 0.652 | > 5 | 0.109 | > 2 | 1 | 1.89 | > 0.001 | 0.496 | 0.00247 | 0.528 | > 10 | 0.327
